Data: US20130190275A1, “COMBINED THERAPIES OF ANTIPSYCHOTIC DRUGS AND TETRACYCLINES IN THE TREATMENT OF PSYCHIATRIC DISORDERS” (MOR RESEARCH APPLICATIONS LTD., priority 2006, published 2013)
Where a name gives a salt, the structure may show the parent alone.

Experiments:
Format in all cases: in vivo, rat
MK801 treated rats [1] = experiment: Pre-Pulse Inhibition (PPI) paradigm, MK801 animal model
Method: (§1) Acoustic Startle Response (ASR) and Pre-Pulse Inhibition (PPI): Both experimental paradigms were performed in a room that was adjacent to the laboratory facilities and the animal stall and that was not used for other experiments. The animals were tested in squad of two with startle chambers counterbalanced across the different experimental groups. Startle response and prepulse inhibition were measured using two ventilated startle chambers (SR-LAB system, San Diego Instruments, San Diego, Calif.). Each chamber consisted of a Plexiglas cylinder resting on a platform inside a sound-attenuated, ventilated chamber. A high-frequency loudspeaker inside the chamber produced both a continuous broadband background noise of 70 dB and the various acoustic stimuli. Movement inside the tube was detected by a piezoelectric accelerometer below the frame. The amplitude of the whole body startle to an acoustic pulse was defined as the average of 100 one-msec accelerometer readings collected from pulse onset. These signals were then digitized and stored by a computer. Sound levels within each test chamber were measured routinely using a sound level meter (Radio Shack) to ensure consistent presentation. The SR-LAB calibration unit was used routinely to ensure consistent stabilimeter sensitivity between test chambers and over time (Swerdlow and Geyer, 1998, Schizophrenia Bulletin, 24(2), 285-301).
(§2) Fifteen minutes before the behavioral procedures conducted at the fourth day, the subject was injected i.p. with an 0.1 mg/kg dose of MK801 or saline, for a total volume of 1 ml per kg of body weight. Next, the subjects passed the three behavioral procedures, described in the following paragraphs.
(§3) ASR and PPI were measured using two startle chambers, with each chamber consisting of a Plexiglas cylinder resting on a platform inside a sound-attenuated, ventilated chamber (see also materials section). The animals were tested in pairs with startle chambers counterbalanced across the different experimental groups.
PPI of the startle response was used as a measure of sensorimotor gating, with the startle chambers used to assess the ability of prepulse stimuli to block the startle response. […]
Pre-Pulse Inhibition (PPI): Startle magnitude is expressed in all the procedures as arbitrary units. Percent PPI (% PPI) was calculated as the mean startle magnitude to stimulus-alone minus the mean startle magnitude to prepulse-stimulus trials, all divided by the mean stimulus-alone trials, and multiplied by 100. The overall mean % PPI was calculated for the four prepulse intensities (72, […], 80, 84 dB). Results were analyzed by two-way ANOVA with a between-subject measure of ‘group’ (difference the treatment groups) and ‘prepulse intensity’ (72, 76, 80, 84 dB).

MK801 treated rats [2] = experiment: Habituation of the Acoustic Startle Response (ASR), MK801 animal model
Method: as §1, §2, §3
The ASR test measured the ability of the animal to habituate to repetitive loud pulses of noise. […] Movement inside the tube was detected by a piezoelectric accelerometer below the frame. The amplitude of the whole body startle to an acoustic pulse was defined as the average of 100 one-msec accelerometer readings collected from pulse onset. […]
Acoustic Startle Response (ASR): The decrease in ASR in the groups was calculated as the percent of amplitude decrease between the mean of the first five amplitude values and the mean of the last 25 amplitude values.
Percent habituation=100×[(average startle amplitude in Block 1)−(average startle amplitude in Block 5)/(average startle amplitude in Block 1)]. Results were analyzed by two-way ANOVA a between-subject measure of ‘group’ (treatment group).

MK801 treated rats [3] = experiment: Morris Water Maze (MWM) task, MK801 animal model of schizophrenia; conditions: MK801 alone vs saline group, p<0.001
Method: Morris Water Maze (MWM): The MWM consisted of a water pool (diameter=1.8 m; depth=0.6 m) containing water at 26±1° C. A hidden platform was located 1.5 cm below the water surface. Within the testing room, only distal visuo-spatial cues were available to the rats for location of the submerged platform. A video camera was placed above the center of the pool for tracking the rat, and a video tracking system (Noldus Information Technology b.v., Wageninpen, The Netherlands) with online digital output, directly fed data into a computer and analyzed. Data were analyzed by using an Etho-Vision automated tracking system (Noldus Information Technology).
as §2
The MWM, a hippocampal-dependent visuo-spatial learning task, was used to assess the subjects' spatial learning/memory. The ability of an animal to locate a hidden platform submerged under water by using extra-maze cues from the test environment was examined. The rats were trained in a pool 1.8 m in diameter and 0.6 m high, containing water at 26±1° C. A 10 cm square transparent platform was hidden in a constant position in the pool submerged 1 cm below the water level. Within the testing room only distal visuo-spatial cues were available to the rats for location of the submerged platform.
Rats were given four trials per day, to find the hidden platform (acquisition phase). The escape latency, i.e., the time required by the rat to find and climb onto the platform, was recorded for up to 120 sec. Each rat was allowed to remain on the platform for 30 sec, and was then removed to its home cage.
Morris Water Maze (MWM): Escape latency, the time between placing the rat in the pool until it located the platform, was measured during behavioral testing. The escape latency was analyzed by means of […] repeated measures analysis of variance (ANOVA) with a between-subjects measure of ‘group’ (treatment group) and a within-subjects measure of ‘trail’ (effects amongst groups in the four different trials).
The MWM test was then performed (see FIG. 1 for results). A significant main effect of ‘group’, ‘trail’ and a significant ‘group’×‘trails’ interaction was found in the repeated measured ANOVA for the MWM task [F(5,35)=9.699, p<0.001; F(3,33)=31.551, p<0.001; F(15,91)=1.824, p<0.05; respectively].

[4] = drug+MK801 0.1 mg/kg i.p., minocycline 35 mg/kg x 3 days pretreatment, haloperidol 0.4 mg/kg i.p.

SMILES	percent of PPI (% PPI) (MK801 treated rats [1]; MK801 alone vs saline treatment group)	percent habituation of the startle response (% habituation) (MK801 treated rats [2]; MK801 alone vs saline treated rats)	escape latency (MK801 treated rats [3])	percent of PPI (% PPI) (MK801 treated rats [1]; [4])	percent habituation of the startle response (% habituation) (MK801 treated rats [2]; [4])
C[C@]12N[C@H](Cc3ccccc31)c1ccccc12 [MK801, Dizocilpine maleate]	induced a significant deficit in the PPI	induced a significant deficit in the habituation of ASR	longer escape latencies	–	–
O=C(CCCN1CCC(O)(c2ccc(Cl)cc2)CC1)c1ccc(F)cc1 [haloperidol]	–	–	–	lack of significant effects	not able to prevent the deficits induced by MK801
